Measured values as given in PubChem BioAssay (NCI).
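Compound exposure: 48 hours, 5 concentrations, 96-well plates. TGI is the concentration that stops growth completely.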

Tests used:
Assay in all cases: NCI tumour cell line growth inhibition, 48 h
[1] = test system: EKVX NSCLC
[2] = test system: HCC-2998 colon
[3] = test system: U251 CNS
[4] = test system: OVCAR-5 ovarian
[5] = test system: SNB-75 CNS
[6] = test system: SF-295 CNS
[7] = test system: BT-549 breast
[8] = test system: MDA-MB-435
[9] = test system: A498 renal
[10] = test system: RPMI-8226 leukemia
[11] = test system: T-47D breast
[12] = test system: MOLT-4 leukemia
[13] = test system: SF-539 CNS
[14] = test system: NCI/ADR-RES ovarian
[15] = test system: KM12 colon
[16] = test system: MDA-MB-231 breast
[17] = test system: HCT-15 colon
[18] = test system: M14 melanoma
[19] = test system: NCI-H226 lung
[20] = test system: NCI-H23 lung
[21] = test system: A549 NSCLC
[22] = test system: HOP-62 NSCLC
[23] = test system: SNB-19 CNS
[24] = test system: SK-MEL-2 melanoma
[25] = test system: UO-31 renal
[26] = test system: UACC-257 melanoma
[27] = test system: HS 578T breast
[28] = test system: CCRF-CEM leukemia
[29] = test system: SK-MEL-5 melanoma
[30] = test system: TK-10 renal
[31] = test system: SN12C renal
[32] = test system: HT29 colon
[33] = test system: SW-620 colon
[34] = test system: HCT-116 colon
[35] = test system: 786-0 renal
[36] = test system: COLO 205 colon
[37] = test system: NCI-H522 lung
[38] = test system: OVCAR-8 ovarian
[39] = test system: DU-145 prostate
[40] = test system: HL-60(TB) leukemia
[41] = test system: SF-268 CNS
[42] = test system: SK-OV-3 ovarian
[43] = test system: SK-MEL-28 melanoma
[44] = test system: MALME-3M melanoma
[45] = test system: LOX IMVI melanoma
[46] = test system: NCI-H460 lung
[47] = test system: IGROV1 ovarian
[48] = test system: SR leukemia
[49] = test system: PC-3 prostate
[50] = test system: UACC-62 melanoma
[51] = test system: CAKI-1 renal
[52] = test system: MCF7 breast
[53] = test system: K-562 leukemia
[54] = test system: ACHN renal
[55] = test system: MDA-N
[56] = test system: OVCAR-3 ovarian
[57] = test system: OVCAR-4 ovarian
[58] = test system: RXF 393 renal
[59] = test system: HOP-92 NSCLC

Measured: TGI

O=C1OC2C=CCC1C2 (stereo not drawn)
not listed: [57] | [58] | [59]
> 100 µM: all other assays above

CC(=O)OC1C[C@@H](C)C2(CC(c3ccoc3)OC2=O)C2CCC(O)C3(CO3)C12CO (stereo partly drawn)
not listed: [1] | [42]
> 100 µM: all other assays above
